According to PMC6155021, “Ancient and modern anticonvulsants act synergistically in a KCNQ potassium channel binding pocket” (Nature Communications, 2018):

What was measured:
[1] = target: KCNQ2-W236L/KCNQ3-W265L channels (Homo sapiens, UniProt O43525+O43526, W236L/W265L); assay: Two-electrode voltage-clamp of W236L-Q2/W265L-Q3 mutant channels in Xenopus oocytes; format: cell-based; conditions: for Non-normalized tail current V0.5 / Normalized tail current V0.5 / Slope: W236L-Q2/W265L-Q3
Excerpt: (§1) cRNA transcripts encoding human KCNA1, KCNQ1, KCNQ2, KCNQ3, KCNQ4, or KCNQ5 were generated by in vitro transcription using the T7 polymerase message machine kit (Thermo Fisher Scientific), after vector linearization, from cDNA sub-cloned into plasmids incorporating X. laevis β-globin 5′ and 3′ UTRs flanking the coding region to enhance translation and cRNA stability. cRNA was quantified by spectrophotometry. Mutant cDNAs were generated by site-directed mutagenesis using a QuikChange kit according to manufacturer’s protocol (Stratagene, San Diego, CA) and corresponding cRNAs prepared as above. Defolliculated stage V and VI X. laevis oocytes (Ecocyte Bioscience, Austin, TX) were injected with Kv channel α subunit cRNAs (10 ng total per oocyte). Oocytes were incubated at 16 °C in Barth’s saline solution (Ecocyte) containing penicillin and streptomycin, with daily washing, for 3–5 days prior to two-electrode voltage-clamp (TEVC) recording.
(§2) Oocytes were placed in a small-volume oocyte bath (Warner) and viewed with a dissection microscope. Chemicals were sourced from Sigma. Bath solution was (in mM): 96 NaCl, 4 KCl, 1 MgCl2, 1 CaCl2, 10 HEPES (pH 7.6). […] MTX (DMSO), sorbic acid (ethanol), and glutaconic acid (molecular grade H2O) were stored at −20 °C as 1 M stocks. Oleamide was stored as a 1 mM stock in ethanol at 4 °C. Palmitic acid was conjugated with bovine serum albumin as a 1 mM stock and stored at −20 °C. All compounds were diluted to working concentrations each experimental day. All compounds were introduced to the recording bath via gravity perfusion at a constant flow of 1 ml/min for 3 min prior to recording. Pipettes were of 1–2 MΩ resistance when filled with 3 M KCl. Currents were recorded in response to pulses between −80 and +40 mV at 20 mV intervals, or a single pulse to +40 mV, from a holding potential of −80 mV, to yield current–voltage relationships, current magnitude, and for quantifying activation rate. TEVC data analysis was performed with Clampfit10.2 (Molecular Devices) and Graphpad Prism software (GraphPad, San Diego, CA, USA); values are stated as mean ± SEM. Normalized tail currents were plotted versus prepulse voltage and fitted with a single Boltzmann function:1 g=A1-A2/1+expV12-Vy+A2, where g is the normalized tail conductance, A1 is the initial value at −∞, A2 is the final value at +∞, V1/2 is the half-maximal voltage of activation, and Vs the slope factor. Activation and deactivation kinetics were fitted with single-exponential functions.

[2] = target: KCNQ2/3 channels (Homo sapiens, UniProt O43525+O43526); assay: Two-electrode voltage-clamp of KCNQ2/3 channels expressed in Xenopus laevis oocytes; format: cell-based
Excerpt: as §1, §2

[3] = target: Q2/W265L-Q3 channels (Homo sapiens, UniProt O43525+O43526, W265L); assay: Two-electrode voltage-clamp of Q2/W265L-Q3 mutant channels in Xenopus oocytes; format: cell-based; conditions: for Non-normalized tail current V0.5 / Normalized tail current V0.5 / Slope: Q2/W265L-Q3
Q2/W265L-Q3 channels, sequence (O43526 whole entry): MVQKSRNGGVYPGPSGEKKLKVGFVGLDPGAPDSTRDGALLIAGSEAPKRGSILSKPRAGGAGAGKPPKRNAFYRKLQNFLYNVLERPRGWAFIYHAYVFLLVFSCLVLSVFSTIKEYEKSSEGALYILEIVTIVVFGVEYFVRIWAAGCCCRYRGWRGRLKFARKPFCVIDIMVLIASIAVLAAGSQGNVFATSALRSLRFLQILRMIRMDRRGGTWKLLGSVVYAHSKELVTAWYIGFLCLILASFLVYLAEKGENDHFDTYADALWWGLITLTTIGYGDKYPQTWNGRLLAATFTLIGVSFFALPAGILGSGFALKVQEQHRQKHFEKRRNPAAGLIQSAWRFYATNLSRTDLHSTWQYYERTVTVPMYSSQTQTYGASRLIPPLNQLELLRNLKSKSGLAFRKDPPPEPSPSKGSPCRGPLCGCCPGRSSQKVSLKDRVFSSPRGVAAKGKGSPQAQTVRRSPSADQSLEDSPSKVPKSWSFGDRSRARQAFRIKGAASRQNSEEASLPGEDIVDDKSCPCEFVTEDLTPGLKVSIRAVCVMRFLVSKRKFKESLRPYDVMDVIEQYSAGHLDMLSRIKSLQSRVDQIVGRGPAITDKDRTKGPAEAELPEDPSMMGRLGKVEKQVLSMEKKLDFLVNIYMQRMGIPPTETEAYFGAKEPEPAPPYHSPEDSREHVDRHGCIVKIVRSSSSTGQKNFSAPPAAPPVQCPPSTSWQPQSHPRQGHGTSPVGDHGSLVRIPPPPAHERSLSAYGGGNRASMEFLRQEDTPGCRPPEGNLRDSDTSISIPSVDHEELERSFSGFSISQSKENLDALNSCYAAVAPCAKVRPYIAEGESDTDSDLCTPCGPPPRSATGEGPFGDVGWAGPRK
Q2/W265L-Q3 channels, sequence (O43525 whole entry W265L): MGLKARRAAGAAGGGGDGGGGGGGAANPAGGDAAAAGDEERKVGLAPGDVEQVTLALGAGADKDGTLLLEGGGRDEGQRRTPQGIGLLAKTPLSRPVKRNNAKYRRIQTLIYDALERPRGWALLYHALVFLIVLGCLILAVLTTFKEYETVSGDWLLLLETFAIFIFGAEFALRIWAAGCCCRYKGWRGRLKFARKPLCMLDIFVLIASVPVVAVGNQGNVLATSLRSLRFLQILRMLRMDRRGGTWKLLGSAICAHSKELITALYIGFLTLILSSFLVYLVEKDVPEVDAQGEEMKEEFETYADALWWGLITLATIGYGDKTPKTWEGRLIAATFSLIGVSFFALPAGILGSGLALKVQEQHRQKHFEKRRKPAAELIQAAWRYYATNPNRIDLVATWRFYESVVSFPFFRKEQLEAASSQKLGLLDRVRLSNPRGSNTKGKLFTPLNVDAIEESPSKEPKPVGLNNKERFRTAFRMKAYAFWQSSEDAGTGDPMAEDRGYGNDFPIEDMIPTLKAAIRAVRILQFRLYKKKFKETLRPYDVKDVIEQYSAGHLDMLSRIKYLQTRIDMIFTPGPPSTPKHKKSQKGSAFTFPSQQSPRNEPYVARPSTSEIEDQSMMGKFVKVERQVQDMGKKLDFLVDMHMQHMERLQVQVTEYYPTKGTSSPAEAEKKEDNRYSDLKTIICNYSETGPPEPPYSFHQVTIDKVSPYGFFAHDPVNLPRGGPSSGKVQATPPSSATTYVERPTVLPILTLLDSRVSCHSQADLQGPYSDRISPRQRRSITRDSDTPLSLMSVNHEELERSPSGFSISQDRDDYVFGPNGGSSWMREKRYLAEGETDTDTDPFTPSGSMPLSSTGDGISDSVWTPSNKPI
Excerpt: as §1, §2

[4] = target: W236L-Q2/Q3 channels (Homo sapiens, UniProt O43525+O43526, W236L); assay: Two-electrode voltage-clamp of W236L-Q2/Q3 mutant channels in Xenopus oocytes; format: cell-based; conditions: for Non-normalized tail current V0.5 / Normalized tail current V0.5 / Slope: W236L-Q2/Q3
W236L-Q2/Q3 channels, sequence (O43525 whole entry): as the sequence (O43525 whole entry W265L) above, with L265W counted along it
W236L-Q2/Q3 channels, sequence (O43526 whole entry W236L): as the sequence (O43526 whole entry) above, with W236L counted along it
Excerpt: as §1, §2

[5] = system: water-injected control oocytes; assay: Two-electrode voltage-clamp of water-injected control oocytes; format: cell-based, Xenopus laevis
Excerpt: Chemicals were sourced from Sigma.

[6] = rats fed Mallotus philippensis extract; cited from earlier work
[7] = KCNQ2/3, 30 µM, Supplementary Table 10
[8] = KCNQ2/3, 30 µM, Supplementary Table 11
[9] = KCNQ2/3, 30 µM, dose series (Supplementary Table 5)

For `CC(=O)c1c(O)c(C)c(O)c(Cc2c(O)c3c(c(C(=O)/C=C/c4ccccc4)c2O)OC(C)(C)C=C3)c1O` [MTX, mallotoxin], the EC50 [1] was 14.9 ± 0.1 µM, the “Non-normalized tail current V0.5” value ([1]; 1 µM) was -62.5 ± 3.4 mV and the “Normalized tail current V0.5” value ([1]; 1 µM) was -62.8 ± 0.4 mV. The Slope ([1]; 1 µM) was 5.9 ± 0.5 mV, the “Non-normalized tail current V0.5” value ([1]; 3 µM) was -63.6 ± 3.7 mV and the “Normalized tail current V0.5” value ([1]; 3 µM) was -64.1 ± 0.9 mV. The Slope ([1]; 3 µM) was 6.3 ± 0.9 mV, the “Non-normalized tail current V0.5” value ([1]; 10 µM) was -66.3 ± 3.9 mV and the “Normalized tail current V0.5” value ([1]; 10 µM) was -67.3 ± 0.9 mV. For the same compound, the Slope ([1]; 10 µM) was 6.4 ± 0.6 mV, the “Non-normalized tail current V0.5” value ([1]; 30 µM) was -70.6 ± 3.7 mV and the “Normalized tail current V0.5” value ([1]; 30 µM) was -71.9 ± 0.9 mV. For the same compound, the Slope ([1]; 30 µM) was 6.3 ± 0.5 mV, the “Non-normalized tail current V0.5” value ([1]; 100 µM) was -74.4 ± 3.9 mV and the “Normalized tail current V0.5” value ([1]; 100 µM) was -77.3 ± 1.4 mV. The Slope ([1]; 100 µM) was 5.9 ± 1.8 mV, the “resting membrane potential (EM) of unclamped oocytes expressing KCNQ2/3” value [2] was “dose-dependently hyperpolarizes” and the “effects on KCNQ2/3” value ([2]; 1 µM alone) was “negligible effects”. For the same compound, the “effect on voltage dependence of KCNQ2/3 activation (initial screen)” value ([2]; 30 µM, tail currents at −30 mV) was “negative-shifted”, the “KCNQ2/3 current increase at −60 mV” value ([2]; 100 µM) was “seven-fold” and the “effect on KCNQ2/3 at +40 mV” value ([2]; +40 mV) was “little effect”. For the same compound, the EC50 ([2]; EC50, KCNQ2/3, current at −60 mV, calculated from dose responses) was 11.5 ± 0.2 µM, the “Non-normalized tail current V0.5” value ([2]; KCNQ2/3, 0.1 µM) was -47.3 ± 2.4 mV and the “Normalized tail current V0.5” value ([2]; KCNQ2/3, 0.1 µM) was -47.8 ± 0.5 mV. For the same compound, the Slope ([2]; KCNQ2/3, 0.1 µM) was 7.5 ± 0.4 mV, the “τ act, -40 mV” value ([2]; KCNQ2/3, 0.1 µM) was 684 ± 55 ms and the “τ deact, -80 mV” value ([2]; KCNQ2/3, 0.1 µM) was 236 ± 12 ms. The “Non-normalized tail current V0.5” value ([2]; KCNQ2/3, 1 µM) was -44.4 ± 4.9 mV, the “Normalized tail current V0.5” value ([2]; KCNQ2/3, 1 µM) was -47.0 ± 0.9 mV and the Slope ([2]; KCNQ2/3, 1 µM) was 7.4 ± 0.6 mV. For the same compound, the “τ act, -40 mV” value ([2]; KCNQ2/3, 1 µM) was 611 ± 46 ms, the “τ deact, -80 mV” value ([2]; KCNQ2/3, 1 µM) was 227 ± 20 ms and the “Non-normalized tail current V0.5” value ([2]; KCNQ2/3, 3 µM) was -47.3 ± 5.0 mV. The “Normalized tail current V0.5” value ([2]; KCNQ2/3, 3 µM) was -50.7 ± 1.0 mV, the Slope ([2]; KCNQ2/3, 3 µM) was 7.9 ± 0.8 mV and the “τ act, -40 mV” value ([2]; KCNQ2/3, 3 µM) was 530 ± 37 ms. The “τ deact, -80 mV” value ([2]; KCNQ2/3, 3 µM) was 259 ± 12 ms, the “Non-normalized tail current V0.5” value ([2]; KCNQ2/3, 10 µM) was -51.9 ± 4.8 mV and the “Normalized tail current V0.5” value ([2]; KCNQ2/3, 10 µM) was -56.2 ± 1.3 mV. For the same compound, the Slope ([2]; KCNQ2/3, 10 µM) was 6.8 ± 1.3 mV, the “τ act, -40 mV” value ([2]; KCNQ2/3, 10 µM) was 462 ± 34 ms and the “τ deact, -80 mV” value ([2]; KCNQ2/3, 10 µM) was 261 ± 7 ms. For the same compound, the “Non-normalized tail current V0.5” value ([2]; KCNQ2/3, 30 µM) was -54.9 ± 4.9 mV, the “Normalized tail current V0.5” value ([2]; KCNQ2/3, 30 µM) was -60.0 ± 1.8 mV and the Slope ([2]; KCNQ2/3, 30 µM) was 8.0 ± 1.8 mV. The “τ act, -20 mV” value [2, 7] was 205 ± 6 ms, the “τ act, -40 mV” value [2, 7] was 397 ± 26 ms and the “τ act, -60 mV” value [2, 7] was 835 ± 51 ms. The “τ deact, -80 mV” value [2, 8] was 143 ± 39 ms, the “τ deact, -90 mV” value [2, 8] was 105 ± 4.2 ms and the “τ deact, -100 mV” value [2, 8] was 77 ± 6.2 ms. The “τ deact, -110 mV” value [2, 8] was 53 ± 3.5 ms, the “τ deact, -120 mV” value [2, 8] was 36 ± 1.2 ms and the “τ act, -40 mV” value [2, 9] was 403 ± 33 ms. For the same compound, the “τ deact, -80 mV” value [2, 9] was 259 ± 18 ms, the “Non-normalized tail current V0.5” value ([2]; KCNQ2/3, 100 µM) was -56.6 ± 3.8 mV and the “Normalized tail current V0.5” value ([2]; KCNQ2/3, 100 µM) was -57.1 ± 0.6 mV. For the same compound, the Slope ([2]; KCNQ2/3, 100 µM) was 7.2 ± 0.5 mV, the “τ act, -40 mV” value ([2]; KCNQ2/3, 100 µM) was 403 ± 34 ms and the “τ deact, -80 mV” value ([2]; KCNQ2/3, 100 µM) was 415 ± 87 ms. For the same compound, the “shift in midpoint voltage dependence (V0.5) of activation” value ([2]; KCNQ2/3, MTX 30 µM) was −17 mV, the EC50 ([2]; V0.5 EC50, KCNQ2/3, calculated from shift in V0.5) was 4 ± 0.2 µM and the “KCNQ2/3 current increase at −60 mV” value ([2]; either component alone (MTX 30 µM; IVA 500 µM)) was “~ fivefold”. For the same compound, the “time to plateau of KCNQ2/3 activation after wash-in” value ([2]; −60 mV current) was 5 min, the EC50 ([3]; EC50, Q2/W265L-Q3, calculated from dose responses) was 70 ± 0.6 µM and the “Non-normalized tail current V0.5” value ([3]; 1 µM) was -51.3 ± 11.3 mV. The “Normalized tail current V0.5” value ([3]; 1 µM) was -45.7 ± 2.9 mV, the Slope ([3]; 1 µM) was 7.9 ± 1.7 mV and the “Non-normalized tail current V0.5” value ([3]; 3 µM) was -52.7 ± 10.5 mV. The “Normalized tail current V0.5” value ([3]; 3 µM) was -49.2 ± 2.6 mV, the Slope ([3]; 3 µM) was 7.9 ± 1.8 mV and the “Non-normalized tail current V0.5” value ([3]; 10 µM) was -54.0 ± 9.7 mV. The “Normalized tail current V0.5” value ([3]; 10 µM) was -51.8 ± 2.4 mV, the Slope ([3]; 10 µM) was 7.6 ± 1.4 mV and the “Non-normalized tail current V0.5” value ([3]; 30 µM) was -58.0 ± 8.3 mV. For the same compound, the “Normalized tail current V0.5” value ([3]; 30 µM) was -56.3 ± 2.2 mV, the Slope ([3]; 30 µM) was 7.4 ± 1.6 mV and the “Non-normalized tail current V0.5” value ([3]; 100 µM) was -63.7 ± 11.2 mV. For the same compound, the “Normalized tail current V0.5” value ([3]; 100 µM) was -61.8 ± 2.2 mV, the Slope ([3]; 100 µM) was 6.6 ± 2.1 mV and the EC50 ([3]; V0.5 EC50, Q2/W265L-Q3, calculated from shift in V0.5) was 13.7 ± 0.3 µM. The EC50 ([4]; EC50, W236L-Q2/Q3, calculated from dose responses) was 27 ± 0.6 µM, the EC50 ([4]; V0.5 EC50, W236L-Q2/Q3, calculated from shift in V0.5) was 37.3 ± 0.2 µM and the “Non-normalized tail current V0.5” value ([4]; 1 µM) was -55.7 ± 1.9 mV. The “Normalized tail current V0.5” value ([4]; 1 µM) was -57.1 ± 0.9 mV, the Slope ([4]; 1 µM) was 6.0 ± 0.7 mV and the “Non-normalized tail current V0.5” value ([4]; 3 µM) was -55.4 ± 2.1 mV. The “Normalized tail current V0.5” value ([4]; 3 µM) was -57.8 ± 1.3 mV, the Slope ([4]; 3 µM) was 3.9 ± 2.2 mV and the “Non-normalized tail current V0.5” value ([4]; 10 µM) was -57.3 ± 2.7 mV. The “Normalized tail current V0.5” value ([4]; 10 µM) was -58.1 ± 0.9 mV, the Slope ([4]; 10 µM) was 6.2 ± 0.7 mV and the “Non-normalized tail current V0.5” value ([4]; 30 µM) was -61.9 ± 3.9 mV. The “Normalized tail current V0.5” value ([4]; 30 µM) was -62.4 ± 1.3 mV, the Slope ([4]; 30 µM) was 6.6 ± 0.9 mV and the “Non-normalized tail current V0.5” value ([4]; 100 µM) was -67.9 ± 7.7 mV. For the same compound, the “Normalized tail current V0.5” value ([4]; 100 µM) was -71.4 ± 4.5 mV, the Slope ([4]; 100 µM) was 6.8 ± 1.2 mV and the “effect on endogenous current and EM of water-injected control oocytes” value [5] was “no effect”. For the same compound, the Oral bioavailability [6] was > 20% and the plasma concentrations [6] was “exceeded 2 µg/ml”.
